Measurements reported in PubChem BioAssay (NCI).
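GI50 = concentration required for 50% inhibition of growth. TGI is the concentration that stops growth completely.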

How the values were obtained:
Assay in all cases: NCI-60 cell line screen, 384-well format
SK-MEL-2 melanoma = test system: SK-MEL-2 melanoma
A498 renal = test system: A498 renal
LOX IMVI melanoma = test system: LOX IMVI melanoma
KM12 colon = test system: KM12 colon
K-562 leukemia = test system: K-562 leukemia
NCI-H226 lung = test system: NCI-H226 lung
CAKI-1 renal = test system: CAKI-1 renal
SK-OV-3 ovarian = test system: SK-OV-3 ovarian
MDA-MB-231 breast = test system: MDA-MB-231 breast
SW-620 colon = test system: SW-620 colon
SK-MEL-5 melanoma = test system: SK-MEL-5 melanoma
NCI-H460 NSCLC = test system: NCI-H460 NSCLC
HT29 colon = test system: HT29 colon
HCC-2998 colon = test system: HCC-2998 colon
HOP-92 NSCLC = test system: HOP-92 NSCLC
UO-31 renal = test system: UO-31 renal
MDA-MB-435 melanoma = test system: MDA-MB-435 melanoma
SN12C renal = test system: SN12C renal
BT-549 breast = test system: BT-549 breast
SF-539 CNS = test system: SF-539 CNS
TK-10 renal = test system: TK-10 renal
OVCAR-5 ovarian = test system: OVCAR-5 ovarian
SNB-19 CNS = test system: SNB-19 CNS
ACHN renal = test system: ACHN renal
DU-145 prostate = test system: DU-145 prostate
OVCAR-4 ovarian = test system: OVCAR-4 ovarian
MDA-MB-468 breast = test system: MDA-MB-468 breast
SF-295 CNS = test system: SF-295 CNS
IGROV1 ovarian = test system: IGROV1 ovarian
HOP-62 NSCLC = test system: HOP-62 NSCLC
UACC-62 melanoma = test system: UACC-62 melanoma
OVCAR-3 ovarian = test system: OVCAR-3 ovarian
RPMI-8226 leukemia = test system: RPMI-8226 leukemia
HCT-116 colon = test system: HCT-116 colon
RXF 393 renal = test system: RXF 393 renal
CCRF-CEM leukemia = test system: CCRF-CEM leukemia
T-47D breast = test system: T-47D breast
NCI-H322M lung = test system: NCI-H322M lung
SR leukemia = test system: SR leukemia
OVCAR-8 ovarian = test system: OVCAR-8 ovarian
MALME-3M melanoma = test system: MALME-3M melanoma
MOLT-4 leukemia = test system: MOLT-4 leukemia
U251 glioblastoma = test system: U251 glioblastoma
COLO 205 colon = test system: COLO 205 colon
UACC-257 melanoma = test system: UACC-257 melanoma
PC-3 prostate = test system: PC-3 prostate
SF-268 CNS = test system: SF-268 CNS
MCF7 breast = test system: MCF7 breast
NCI-H522 lung = test system: NCI-H522 lung
NCI/ADR-RES ovarian = test system: NCI/ADR-RES ovarian
786-0 renal = test system: 786-0 renal
HL-60(TB) leukemia = test system: HL-60(TB) leukemia
NCI-H23 lung = test system: NCI-H23 lung
A549 NSCLC = test system: A549 NSCLC
SK-MEL-28 melanoma = test system: SK-MEL-28 melanoma
M14 melanoma = test system: M14 melanoma
HCT-15 colon = test system: HCT-15 colon
SNB-75 CNS = test system: SNB-75 CNS

C[C@H](Nc1cc(Cl)nc2c1cnn2[C@@H]1O[C@H](COP(=O)(O)CP(=O)(O)O)[C@@H](O)[C@H]1O)c1ccccc1F
GI50 (SK-MEL-2 melanoma): 99.6 µM | TGI (SK-MEL-2 melanoma): > 100 µM | GI50 (A498 renal): 62.1 µM | TGI (A498 renal): > 100 µM | GI50 (LOX IMVI melanoma): > 100 µM | TGI (LOX IMVI melanoma): > 100 µM | GI50 (KM12 colon): > 100 µM | TGI (KM12 colon): > 100 µM | GI50 (K-562 leukemia): > 100 µM | TGI (K-562 leukemia): > 100 µM | GI50 (NCI-H226 lung): 56.6 µM | TGI (NCI-H226 lung): > 100 µM | GI50 (CAKI-1 renal): > 100 µM | TGI (CAKI-1 renal): > 100 µM | GI50 (SK-OV-3 ovarian): 73.8 µM | TGI (SK-OV-3 ovarian): > 100 µM | GI50 (MDA-MB-231 breast): > 100 µM | TGI (MDA-MB-231 breast): > 100 µM | GI50 (SW-620 colon): > 100 µM | TGI (SW-620 colon): > 100 µM | GI50 (SK-MEL-5 melanoma): > 100 µM | TGI (SK-MEL-5 melanoma): > 100 µM | GI50 (NCI-H460 NSCLC): > 100 µM | TGI (NCI-H460 NSCLC): > 100 µM | GI50 (HT29 colon): > 100 µM | TGI (HT29 colon): > 100 µM | GI50 (HCC-2998 colon): 72.9 µM | TGI (HCC-2998 colon): > 100 µM | GI50 (HOP-92 NSCLC): > 100 µM | TGI (HOP-92 NSCLC): > 100 µM | GI50 (UO-31 renal): > 100 µM | TGI (UO-31 renal): > 100 µM | GI50 (MDA-MB-435 melanoma): > 100 µM | TGI (MDA-MB-435 melanoma): > 100 µM | GI50 (SN12C renal): 70.8 µM | TGI (SN12C renal): > 100 µM | GI50 (BT-549 breast): 50.6 µM | TGI (BT-549 breast): > 100 µM | GI50 (SF-539 CNS): 49.9 µM | TGI (SF-539 CNS): > 100 µM | GI50 (TK-10 renal): > 100 µM | TGI (TK-10 renal): > 100 µM | GI50 (OVCAR-5 ovarian): > 100 µM | TGI (OVCAR-5 ovarian): > 100 µM | GI50 (SNB-19 CNS): > 100 µM | TGI (SNB-19 CNS): > 100 µM | GI50 (ACHN renal): > 100 µM | TGI (ACHN renal): > 100 µM | GI50 (DU-145 prostate): > 100 µM | TGI (DU-145 prostate): > 100 µM | GI50 (OVCAR-4 ovarian): 50.6 µM | TGI (OVCAR-4 ovarian): > 100 µM | GI50 (MDA-MB-468 breast): > 100 µM | TGI (MDA-MB-468 breast): > 100 µM | GI50 (SF-295 CNS): > 100 µM | TGI (SF-295 CNS): > 100 µM | GI50 (IGROV1 ovarian): > 100 µM | TGI (IGROV1 ovarian): > 100 µM | GI50 (HOP-62 NSCLC): > 100 µM | TGI (HOP-62 NSCLC): > 100 µM | GI50 (UACC-62 melanoma): > 100 µM | TGI (UACC-62 melanoma): > 100 µM | GI50 (OVCAR-3 ovarian): > 100 µM | TGI (OVCAR-3 ovarian): > 100 µM | GI50 (RPMI-8226 leukemia): 8.19 µM | TGI (RPMI-8226 leukemia): 40.9 µM | GI50 (HCT-116 colon): > 100 µM | TGI (HCT-116 colon): > 100 µM | GI50 (RXF 393 renal): 28.5 µM | TGI (RXF 393 renal): > 100 µM | GI50 (CCRF-CEM leukemia): 42.4 µM | TGI (CCRF-CEM leukemia): > 100 µM | GI50 (T-47D breast): 80.7 µM | TGI (T-47D breast): > 100 µM | GI50 (NCI-H322M lung): > 100 µM | TGI (NCI-H322M lung): > 100 µM | GI50 (SR leukemia): 47.9 µM | TGI (SR leukemia): > 100 µM | GI50 (OVCAR-8 ovarian): > 100 µM | TGI (OVCAR-8 ovarian): > 100 µM | GI50 (MALME-3M melanoma): > 100 µM | TGI (MALME-3M melanoma): > 100 µM | GI50 (MOLT-4 leukemia): 58.8 µM | TGI (MOLT-4 leukemia): > 100 µM | GI50 (U251 glioblastoma): > 100 µM | TGI (U251 glioblastoma): > 100 µM | GI50 (COLO 205 colon): > 100 µM | TGI (COLO 205 colon): > 100 µM | GI50 (UACC-257 melanoma): > 100 µM | TGI (UACC-257 melanoma): > 100 µM | GI50 (PC-3 prostate): > 100 µM | TGI (PC-3 prostate): > 100 µM | GI50 (SF-268 CNS): > 100 µM | TGI (SF-268 CNS): > 100 µM | GI50 (MCF7 breast): > 100 µM | TGI (MCF7 breast): > 100 µM | GI50 (NCI-H522 lung): > 100 µM | TGI (NCI-H522 lung): > 100 µM | GI50 (NCI/ADR-RES ovarian): > 100 µM | TGI (NCI/ADR-RES ovarian): > 100 µM | GI50 ([…]-0 renal): > 100 µM | TGI (786-0 renal): > 100 µM | GI50 (HL-60(TB) leukemia): > 100 µM | TGI (HL-60(TB) leukemia): > 100 µM | GI50 (NCI-H23 lung): 67.3 µM | TGI (NCI-H23 lung): > 100 µM | GI50 (A549 NSCLC): 80.5 µM | TGI (A549 NSCLC): > 100 µM | GI50 (SK-MEL-28 melanoma): > 100 µM | TGI (SK-MEL-28 melanoma): > 100 µM | GI50 (M14 melanoma): > 100 µM | TGI (M14 melanoma): > 100 µM | GI50 (HCT-15 colon): > 100 µM | TGI (HCT-15 colon): > 100 µM

Nc1ccn(C2OC(CO)C(O)C2O)c(=O)n1 (configuration not stated)
GI50 (SK-MEL-2 melanoma): > 21.4 µM | GI50 (A498 renal): 0.27 µM | GI50 (LOX IMVI melanoma): 0.286 µM | TGI (LOX IMVI melanoma): 9.95 µM | GI50 (KM12 colon): 6.67 µM | GI50 (K-562 leukemia): 0.155 µM | GI50 (NCI-H226 lung): 1.74 µM | GI50 (CAKI-1 renal): 0.446 µM | GI50 (SK-OV-3 ovarian): 1.89 µM | GI50 (SW-620 colon): 0.581 µM | GI50 (SK-MEL-5 melanoma): 0.249 µM | TGI (SK-MEL-5 melanoma): 0.79 µM | GI50 (NCI-H460 NSCLC): 0.0343 µM | TGI (NCI-H460 NSCLC): 0.366 µM | GI50 (HT29 colon): 1.48 µM | GI50 (HCC-2998 colon): 0.0847 µM | GI50 (HOP-92 NSCLC): 10.6 µM | GI50 (UO-31 renal): 0.406 µM | GI50 (SN12C renal): 1.24 µM | GI50 (BT-549 breast): 0.602 µM | GI50 (SF-539 CNS): 1.8 µM | TGI (SF-539 CNS): > 95.6 µM | GI50 (SNB-19 CNS): 0.738 µM | TGI (SNB-19 CNS): > 27.2 µM | GI50 (ACHN renal): 0.196 µM | TGI (ACHN renal): 1.11 µM | GI50 (DU-145 prostate): 0.501 µM | TGI (DU-145 prostate): > 30.8 µM | GI50 (SNB-75 CNS): 8.64 µM | GI50 (MDA-MB-468 breast): 1.14 µM | GI50 (SF-295 CNS): 2.14 µM | TGI (SF-295 CNS): 12 µM | GI50 (IGROV1 ovarian): 2.39 µM | GI50 (HOP-62 NSCLC): 0.0639 µM | TGI (HOP-62 NSCLC): 0.706 µM | GI50 (UACC-62 melanoma): 0.732 µM | GI50 (OVCAR-3 ovarian): 6.7 µM | GI50 (RPMI-8226 leukemia): 3.49 µM | GI50 (HCT-116 colon): 0.0695 µM | GI50 (CCRF-CEM leukemia): < 0.0137 µM | TGI (CCRF-CEM leukemia): 0.0205 µM | GI50 (SR leukemia): 0.103 µM | TGI (SR leukemia): 0.235 µM | GI50 (OVCAR-8 ovarian): 0.102 µM | GI50 (U251 glioblastoma): 1.06 µM | GI50 (COLO 205 colon): 0.0588 µM | TGI (COLO 205 colon): 2.64 µM | GI50 (UACC-257 melanoma): 2.23 µM | TGI (UACC-257 melanoma): > 42.5 µM | GI50 (SF-268 CNS): 1.03 µM | GI50 (MCF7 breast): 0.0991 µM | GI50 (NCI-H522 lung): 0.0858 µM | GI50 (NCI/ADR-RES ovarian): 0.446 µM | GI50 ([…]-0 renal): 0.218 µM | GI50 (HL-60(TB) leukemia): 0.182 µM | TGI (HL-60(TB) leukemia): 0.759 µM | GI50 (NCI-H23 lung): 0.106 µM | TGI (NCI-H23 lung): 1.01 µM | GI50 (A549 NSCLC): 0.0751 µM | GI50 (SK-MEL-28 melanoma): 0.171 µM | GI50 (M14 melanoma): 0.148 µM | TGI (M14 melanoma): 1.95 µM | GI50 (HCT-15 colon): 0.328 µM
